Data published in US20100317626A1, “The Use Of (3-Amino-2-Fluoropropyl) Phosphinic Acid For Treatment Of NERD” (ASTRAZENECA AB, priority 2007, published 2010).

Tests used:
[1] = system: transient lower esophageal sphincter relaxations (TLESRs); test: Clinical study: number of TLESRs after a standardised meal, single-blind randomised placebo-controlled; type: in vivo, healthy volunteers; conditions: for reduction of the number of transient lower esophageal sphincter relaxations (TLESRs) as compared to placebo: healthy volunteers, 0-3 hours after intake of a standardised meal completed 1 hour after drug intake
Description: A clinical study of (2R)-(3-Amino-2-fluoropropyl)phosphinic acid was performed. The study was a single-blind, randomised, parallel group, placebo-controlled study in healthy volunteers. Each subject was given 2 doses of (2R)-(3-Amino-2-fluoropropyl)phosphinic acid in escalating order and one placebo dose. A dose of (2R)-(3-Amino-2-fluoropropyl)phosphinic acid 0.8 mg/kg was compared to placebo and baclofen (40 mg) was used as a positive control. The order of treatments was randomised. The number of transient lower esophageal sphincter relaxations (TLESRs) 0-3 hours after intake of a standardised meal, (completed 1 hour after drug intake) were reduced by 36% and 47% for (2R)-(3-Amino-2-fluoropropyl)phosphinic acid and baclofen respectively, as compared to placebo (FIG. 1).

[2] = system: bile reflux and reflux symptoms; conditions: patients with persistent non-acid duodenogastroesophageal reflux; cited from earlier work
[3] = clinical study in healthy volunteers

Compound	inhibition of TLESRs (result in words) [1, 3]	tolerability [1, 3]	reduction of the number of transient lower esophageal sphincter relaxations (TLESRs) as compared to placebo ([1]; dose 0.8 mg/kg)	reduction of the number of transient lower esophageal sphincter relaxations (TLESRs) as compared to placebo ([1]; baclofen 40 mg, positive control)	effect on bile reflux and reflux symptoms [2]
NC[C@@H](F)C[PH](=O)O [(2R)-(3-Amino-2-fluoropropyl)phosphinic acid]	efficacious	well tolerated	36%	–	–
NCC(CC(=O)O)c1ccc(Cl)cc1 (centres unmarked) [baclofen, reference compound]	–	–	–	47%	inhibit the occurrence of bile reflux and reflux symptoms
